One assay concerns BMDMs. The format is cell-based, mouse. Here is the method: Mouse bone marrow-derived macrophages (BMDMs) were isolated from the hind leg femur bone marrow of C57BL/6J mice and were cultured or activated with macrophage colony-stimulating factor (M-CSF, 50 ng ml-1) according to standardized procedures. The purity of the induced cells was assessed by flow cytometry for CD45+CD11b+ cells.
One day before treatment, cells were plated at 400,000 cells/well in a 12 well plate. […] […] Plates were flipped upside down and left to incubate for 10 min at 37° C. Cells were diluted to 2.5 mL with PFB-saturated RPMI, placed on top of a water bath set to 37° C., then sonoporated at 1 MHz, with 1 W/cm^2 power density, 20% duty cycle (DC) for 60 seconds (SONITRON® GTS, 15 mm diameter). Fluorescence microscopy images were taken at different time points (0, 3, 6, 12, 24, and 48 h).

Another assay relates to STING pathway in BMDMs. Nature of the assay: STING signaling after treatment (qRT-PCR, ELISA, western blot, immunostaining). The format is cell-based, mouse. In general terms: In qPCR the cycle at which signal appears reflects the starting amount.
The subject of assay [1] is EO771 orthotopic breast tumors. Nature of the assay: Tumor growth and survival. Format: in vivo, mouse. To be noted: wild type mice, three intratumoral treatments every other day, 100 μg cGAMP.
Description: Orthotopic mammary fat pad tumors were established as in Example 9. […] The mice were injected intratumorally with 20 μL of solution infused at 1 μL/second using a syringe pump. […] The mice were treated every other day for a total of three treatments (days 13, 15, and 17). US, where part of the treatment group, was applied by using acoustic coupling gel and a 1-MHz plane wave transducer operating at 4 W/cm^2 for 60 seconds and a 50% duty cycle given to opposite sides of the tumor for a total treatment time of 120 seconds. At 18 days post tumor inoculation treated mice were sacrificed.
Tumor sizes were measured every two days using digital calipers, and tumor volume was calculated according to an ellipsoid formula as 0.5×length×width^2. Mice were sacrificed if any tumor ulceration was observed or if tumors reached 2000 mm^3 in volume. The final tumor volume comparison between the MUSIC and control groups was done when the first mice from a control group was sacrificed. […] Statistical analysis was done using an unpaired t-test for tumor sizes and Log-rank test for survival curves.

Description for STING pathway in BMDMs: Mouse BMDMs and human THP-1 cells were cultured as described above.

In the case of “2′-O-(6-[DY547]-aminohexylcarbamoyl)-cyclic diguanosine monophosphate [diGMP only]”, the “uptake of diGMP (fluorescence microscopy)” value in the assay with BMDMs is listed as “weak uptake”.

As to `Nc1nc2c(ncn2[C@@H]2O[C@@H]3COP(=O)(O)O[C@H]4[C@@H](O)[C@H](n5cnc6c(N)ncnc65)O[C@@H]4COP(=O)(O)O[C@@H]2[C@@H]3O)c(=O)[nH]1` [cGAMP, cyclic guanosine monophosphate-adenosine monophosphate], the “STING or IRF-3 phosphorylation (western blot)” value with STING pathway in BMDMs was “no STING or IRF-3 phosphorylation”. The “mice with complete tumor remission / complete response” value in assay [1] is listed as 2 out of 10.

The values above are taken from patent publication US20240269287A1, “MICROBUBBLE-ASSISTED ULTRASOUND-GUIDED THERAPY” (THE BOARD OF REGENTS OF THE UNIVERSITY OF TEXAS SYSTEM, priority 2021, published 2024).
